Consider 4 molecules from PMC4857598 (Nuclear medicine and biology, 2012).

Test [1] concerns αvβ3. The following applies: read-out: IC50 value; published pentapeptides; cited from earlier work.
In another test the target is T1, MMP2 (Homo sapiens, UniProt P08253).
T1 sequence (P08253 110-660): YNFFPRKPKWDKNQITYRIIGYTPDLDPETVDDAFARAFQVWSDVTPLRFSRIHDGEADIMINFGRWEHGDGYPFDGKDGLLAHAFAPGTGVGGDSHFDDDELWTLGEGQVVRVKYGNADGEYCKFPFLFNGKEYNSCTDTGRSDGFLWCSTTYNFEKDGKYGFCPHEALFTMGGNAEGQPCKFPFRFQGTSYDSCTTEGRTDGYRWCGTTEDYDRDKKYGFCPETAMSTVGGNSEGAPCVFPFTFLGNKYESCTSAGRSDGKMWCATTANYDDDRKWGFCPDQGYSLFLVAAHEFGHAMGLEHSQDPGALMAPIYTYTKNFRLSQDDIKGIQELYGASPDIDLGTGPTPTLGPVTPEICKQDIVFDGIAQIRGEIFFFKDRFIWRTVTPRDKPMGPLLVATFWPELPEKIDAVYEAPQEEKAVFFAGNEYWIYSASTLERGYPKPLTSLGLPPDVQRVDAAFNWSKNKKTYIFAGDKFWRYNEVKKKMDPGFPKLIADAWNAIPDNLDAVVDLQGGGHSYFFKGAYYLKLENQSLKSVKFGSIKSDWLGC
Nature of the test: Ilomastat inhibition of MMP2 activity. The following applies: 910 μM ilomastat, MMP2 1.4 μg, 37 °C, 24 hours, HPLC of fragmented peptide. The test is classed as biochemical.

Test [2] deals with Integrin αvβ3. The following applies: read-out: IC50 value by fluorescence polarization; cited from earlier work. On the technique in general: Fluorescence polarisation rises when a labelled molecule tumbles more slowly, as on binding a larger partner.
Test [3] concerns Integrin αvβ3. The following applies: read-out: IC50 value by cell adhesion; cited from earlier work.
The test system of test [4] is αvβ3. The following applies: read-out: IC50 value; published pentapeptides; cited from earlier work. The source holds these as a separate data set.

Read-outs that look alike come from different tables or passages of the source.

In the case of c(RGDfK), the concentration for half-maximal inhibition (IC50) (usually the concentration that gives 50% inhibition) in the test on αvβ3 [1] is 4.2 nM. Take `CNC(=O)[C@H](Cc1c[nH]c2ccccc12)NC(=O)[C@@H](CC(=O)NO)CC(C)C` [ilomastat, N-[(2R)-2-(hydroxamidocarbonylmethyl)-4-methylpentanoyl]-L-tryptophan methylamide]: the “inhibition of MMP2 cleavage of [64Cu]c(RGDfE)K(DOTA)PLGVRY” value at MMP2 is listed as “inhibition of the peptide cleavage”. As for c(ERGDf) (head to tail), the IC50 is 280 ± 4 nM in the test with Integrin αvβ3 [2] and 3200 ± 160 nM in the test on Integrin αvβ3 [3]. Consider c(rGDFV) (head to tail), for which the IC50 in the test with αvβ3 [4] was 25000 ± 4000 nM.
